Here are results for 28 molecules from US11578073B2, “Xanthine analogs as potent anti-West Nile viral agents” (Southern Research Institute, priority 2019, dated 2023).

One data set relates to West Nile virus. Briefly: anti-West Nile virus activity of xanthine analogs in HEK293 cells. The format is cell-based. Particulars: HEK293, read-out: EC90 (effective concentration to inhibit 90% of virus).
A short description of data set [1]: cell viability assay (cytotoxicity) in HEK293 cells. The format is cell-based. The settings on record: human, read-out: CC50 (50% cytotoxicity concentration).

Consider `Cn1c(=O)[nH]c(=O)c2c1nc(N1CCN(Cc3ccc(C(C)(C)C)nc3)CC1)n2Cc1ccccc1F` [Compound 38, 8-(4-((6-(tert-Butyl)pyridin-3-yl)methyl)piperazin-1-yl)-7-(2-fluorobenzyl)-3-methyl-3,7-dihydro-1H-purine-2,6-dione], for which the EC90 in the data set with West Nile virus turned out to be 16 µM. Also, in data set [1], the CC50 came out at 34.2 µM.

For `Cn1c(=O)[nH]c(=O)c2c1nc(N1CCN(Cc3ccc(C(C)(C)O)cc3)CC1)n2Cc1ccccc1F` [Compound 40, 7-(2-fluorobenzyl)-8-(4-(4-(2-hydroxypropan-2-yl)benzyl)piperazin-1-yl)-3-methyl-3,7-dihydro-1H-purine-2,6-dione], in the data set with West Nile virus, the EC90 is over 10 µM. For the same molecule, the CC50 in data set [1] was over 40 µM.

Take `Cn1c(=O)[nH]c(=O)c2c1nc(N1CCN(c3cccc(C(C)(C)C)c3)CC1)n2Cc1ccccc1F` [Compound 28, 8-(4-(3-(tert-butyl)phenyl)piperazin-1-yl)-7-(2-fluorobenzyl)-3-methyl-3,7-dihydro-1H-purine-2,6-dione]: the EC90 in the data set with West Nile virus turned out to be 10 µM. Besides, the CC50 in data set [1] is over 40 µM.

With `Cc1cc(C)cc(N2CCN(c3nc4c(c(=O)[nH]c(=O)n4C)n3Cc3ccccc3F)CC2)c1` [Compound 27, 8-(4-(3,5-Dimethylphenyl)piperazin-1-yl)-7-(2-fluorobenzyl)-3-methyl-3,7-dihydro-1H-purine-2,6-dione], the EC90 with West Nile virus is 10 µM. For the same molecule, in data set [1], the CC50 was over 30 µM.

For the molecule `CC(C)c1ccc(CN2CCN(c3nc4c(c(=O)[nH]c(=O)n4C)n3Cc3ccccc3F)CC2)cc1` [Compound 41, 7-(2-Fluorobenzyl)-8-(4-(4-isopropylbenzyl)piperazin-1-yl)-3-methyl-3,7-dihydro-1H-purine-2,6-dione], the EC90 with West Nile virus stood at 1.1 µM. Moreover, the CC50 in data set [1] was 24 µM.

As for `Cn1c(=O)n(CO)c(=O)c2c1nc(N1CCN(Cc3ccc(C(C)(C)C)cc3)CC1)n2Cc1ccccc1F` [Compound 5, 8-(4-(4-(tert-butyl)benzyl)piperazin-1-yl)-7-(2-fluorobenzyl)-1-(hydroxymethyl)-3-methyl-3,7-dihydro-1H-purine-2,6-dione], the EC90 in the data set with West Nile virus stood at 1.2 µM. Also, in data set [1], the CC50 came to 16.8 µM.

Consider `CCn1c(N2CCN(Cc3cc(C)ccc3C)CC2)nc2c1c(=O)[nH]c(=O)n2C` [Compound 8, 8-(4-(2,5-Dimethylbenzyl)piperazin-1-yl)-7-ethyl-3-methyl-3,7-dihydro-1H-purine-2,6-dione], for which the EC90 in the data set on West Nile virus is over 10 µM. Besides, in data set [1], the CC50 was over 40 µM.

Regarding `Cn1c(=O)n(CCO)c(=O)c2c1nc(N1CCN(Cc3ccc(C(C)(C)C)cc3)CC1)n2Cc1ccccc1F` [Compound 6, 8-(4-(4-(tert-butyl)benzyl)piperazin-1-yl)-7-(2-fluorobenzyl)-1-(2-hydroxyethyl)-3-methyl-3,7-dihydro-1H-purine-2,6-dione], the EC90 in the data set with West Nile virus is 6 µM. Further, in data set [1], the CC50 was determined as 12 µM.

For `Cn1c(=O)[nH]c(=O)c2c1nc(N1CCN(C(=O)Cc3ccc(C(C)(C)C)cc3)CC1)n2Cc1ccccc1F` [Compound 50, 8-(4-(2-(4-(tert-Butyl)phenyl)acetyl)piperazin-1-yl)-7-(2-fluorobenzyl)-3-methyl-3,7-dihydro-1H-purine-2,6-dione], the EC90 with West Nile virus stood at 3.7 µM. The CC50 in data set [1] was over 30 µM.

Consider `Cc1ccc(C)c(CN2CCN(c3nc4c(c(=O)[nH]c(=O)n4C)n3Cc3ccccc3C#N)CC2)c1` [Compound 11, 2-((8-(4-(2,5-Dimethylbenzyl)piperazin-1-yl)-3-methyl-2,6-dioxo-1,2,3,6-tetrahydro-7H-purin-7-yl)methyl)benzonitrile], for which the EC90 with West Nile virus was found to be 6.9 µM. In addition, the CC50 in data set [1] is over 30 µM.

Take `Cn1c(=O)[nH]c(=O)c2c1nc(N1CCN(C(=O)c3ccc(C(C)(C)C)cc3)CC1)n2Cc1ccccc1F` [Compound 44, 8-(4-(4-(tert-Butyl)benzoyl)piperazin-1-yl)-7-(2-fluorobenzyl)-3-methyl-3,7-dihydro-1H-purine-2,6-dione]: in the data set on West Nile virus, the EC90 was 8.8 µM. Also, the CC50 in data set [1] was over 30 µM.

For the molecule `Cn1c(=O)[nH]c(=O)c2c1nc(N1CCN(c3ccc(C(F)(F)F)cc3)CC1)n2Cc1ccccc1F` [Compound 30, 7-(2-Fluorobenzyl)-3-methyl-8-(4-(4-(trifluoromethyl)phenyl)piperazin-1-yl)-3,7-dihydro-1H-purine-2,6-dione], in the data set with West Nile virus, the EC90 amounted to 6.5 µM. Besides, in data set [1], the CC50 was 12.9 µM.

Take `Cn1c(=O)[nH]c(=O)c2c1nc(N1CCN(Cc3ccc(C(C)(C)C)cc3)C(C(=O)O)C1)n2Cc1ccccc1F` (centres unmarked) [Compound 37, 1-(4-(tert-butyl)benzyl)-4-(7-(2-fluorobenzyl)-3-methyl-2,6-dioxo-2,3,6,7-tetrahydro-1H-purin-8-yl)piperazine-2-carboxylic Acid]: the EC90 in the data set on West Nile virus is over 10 µM. Besides, the CC50 in data set [1] was over 40 µM.

As for `C=C(C)c1ccc(CN2CCN(c3nc4c(c(=O)[nH]c(=O)n4C)n3Cc3ccccc3F)CC2)cc1` [Compound 42, 7-(2-Fluorobenzyl)-3-methyl-8-(4-(4-(prop-1-en-2-yl)benzyl)piperazin-1-yl)-3,7-dihydro-1H-purine-2,6-dione], in the data set on West Nile virus, the EC90 turned out to be 2.1 µM. The CC50 in data set [1] amounted to 22 µM.

Consider `Cc1ccc(C)c(C(=O)N2CCN(c3nc4c(c(=O)[nH]c(=O)n4C)n3Cc3ccccc3F)CC2)c1` [Compound 43, 8-(4-(2,5-Dimethylbenzoyl)piperazin-1-yl)-7-(2-fluorobenzyl)-3-methyl-3,7-dihydro-1H-purine-2,6-dione], for which, in the data set on West Nile virus, the EC90 was over 10 µM. Moreover, the CC50 in data set [1] is over 40 µM.

As to `Cc1ccc(C)c(CN2CCN(c3nc4c(c(=O)[nH]c(=O)n4C)n3CC3CCCCC3)CC2)c1` [Compound 9, 7-(Cyclohexylmethyl)-8-(4-(2,5-dimethylbenzyl)piperazin-1-yl)-3-methyl-3,7-dihydro-1H-purine-2,6-dione], the EC90 in the data set on West Nile virus was 4.4 µM. Also, the CC50 in data set [1] is over 40 µM.

As to `Cc1ccc(C)c(CN2CCN(c3nc4c(c(=O)[nH]c(=O)n4C)n3Cc3cccc(F)c3)CC2)c1` [Compound 13, 8-(4-(2,5-Dimethylbenzyl)piperazin-1-yl)-7-(3-fluorobenzyl)-3-methyl-3,7-dihydro-1H-purine-2,6-dione], the EC90 in the data set on West Nile virus stood at 5.7 µM. The CC50 in data set [1] was over 30 µM.

Consider `Cn1c(=O)[nH]c(=O)c2c1nc(N1CCN(Cc3ccc(C(C)(C)C#N)cc3)CC1)n2Cc1ccccc1F` [Compound 39, 2-(4-((4-(7-(2-Fluorobenzyl)-3-methyl-2,6-dioxo-2,3,6,7-tetrahydro-1H-purin-8-yl)piperazin-1-yl)methyl)phenyl)-2-methylpropanenitrile], for which the EC90 in the data set with West Nile virus was over 30 µM. The CC50 in data set [1] was over 40 µM.

On to `Cc1ccc(C)c(CN2CCN(c3nc4c(c(=O)[nH]c(=O)n4C)n3Cc3ccc(F)cc3)CC2)c1` [Compound 14, 8-(4-(2,5-Dimethylbenzyl)piperazin-1-yl)-7-(4-fluorobenzyl)-3-methyl-3,7-dihydro-1H-purine-2,6-dione], for which the EC90 in the data set on West Nile virus is 6.1 µM. Besides, the CC50 in data set [1] was over 30 µM.

Take `COC(=O)c1ccc(Cn2c(N3CCN(Cc4ccc(C(C)(C)C)cc4)CC3)nc3c2c(=O)[nH]c(=O)n3C)c(F)c1` [Compound 18, methyl 4-((8-(4-(4-(tert-butyl)benzyl)piperazin-1-yl)-3-methyl-2,6-dioxo-1,2,3,6-tetrahydro-7H-purin-7-yl)methyl)-3-fluorobenzoate]: the EC90 in the data set with West Nile virus worked out at 5.2 µM. Besides, in data set [1], the CC50 amounted to 21.4 µM.

Take `Cn1c(=O)[nH]c(=O)c2c1nc(N1CCC(c3cccc(F)c3)CC1)n2Cc1ccccc1F` [Compound 57, 7-(2-Fluorobenzyl)-8-(4-(3-fluorophenyl)piperidin-1-yl)-3-methyl-3,7-dihydro-1H-purine-2,6-dione]: the EC90 in the data set with West Nile virus was 4.4 µM. Further, the CC50 in data set [1] was over 30 µM.

As to `Cc1ccc(C)c(CN2CCN(c3nc4c(c(=O)[nH]c(=O)n4C)n3Cc3ccccc3F)CC2)c1` [Compound 1, 8-(4-(2,5-dimethylbenzyl)piperazin-1-yl)-7-(2-fluorobenzyl)-3-methyl-3,7-dihydro-1H-purine-2,6-dione], the EC90 with West Nile virus worked out at 1.2 µM. Also, the CC50 in data set [1] stood at 12 µM.

Regarding `Cc1ccc(C)c(N2CCN(c3nc4c(c(=O)[nH]c(=O)n4C)n3Cc3ccccc3F)CC2)c1` [Compound 26, 8-(4-(2,5-Dimethylphenyl)piperazin-1-yl)-7-(2-fluorobenzyl)-3-methyl-3,7-dihydro-1H-purine-2,6-dione], the EC90 with West Nile virus came out at 4.5 µM. Also, the CC50 in data set [1] turned out to be 2.8 µM.

Take `Cn1c(=O)[nH]c(=O)c2c1nc(N1CCN(Cc3ccc(C(C)(C)C)cc3)CC1)n2Cc1ccccc1F` [Compound 36, 8-(4-(4-(tert-butyl)benzyl)piperazin-1-yl)-7-(2-fluorobenzyl)-3-methyl-3,7-dihydro-1H-purine-2,6-dione]: the EC90 in the data set with West Nile virus was 0.87 µM. Besides, the CC50 in data set [1] was over 30 µM.

With `Cn1c(=O)[nH]c(=O)c2c1nc(N1CCN(Cc3ccc(C(C)(C)C)cc3)CC1)n2Cc1ccccc1OC(F)(F)F` [Compound 17, 8-(4-(4-(tert-Butyl)benzyl)piperazin-1-yl)-3-methyl-7-(2-(trifluoromethoxy)benzyl)-3,7-dihydro-1H-purine-2,6-dione], the EC90 in the data set on West Nile virus is 1.2 µM. Moreover, in data set [1], the CC50 was found to be 10.2 µM.

Turning to `Cc1ccc(C)c(CN2CCN(c3nc4c(c(=O)n(C)c(=O)n4C)n3Cc3ccccc3F)CC2)c1` [Compound 2, 8-(4-(2,5-dimethylbenzyl)piperazin-1-yl)-7-(2-fluorobenzyl)-1,3-dimethyl-3,7-dihydro-1H-purine-2,6-dione], the EC90 with West Nile virus came to 1.1 µM. In data set [1], the CC50 is over 40 µM.

`Cn1c(=O)[nH]c(=O)c2c1nc(N1CCN(Cc3ccc(F)cc3)CC1)n2Cc1ccccc1F` [Compound 35, 7-(2-Fluorobenzyl)-8-(4-(4-fluorobenzyl)piperazin-1-yl)-3-methyl-3,7-dihydro-1H-purine-2,6-dione]: the EC90 with West Nile virus stood at 10.5 µM. For the same molecule, the CC50 in data set [1] is over 30 µM.

As to `Cn1c(=O)[nH]c(=O)c2c1nc(N1CCOCC1)n2Cc1ccccc1F` [Compound 22, 7-(2-Fluorobenzyl)-3-methyl-8-morpholino-3,7-dihydro-1H-purine-2,6-dione], the EC90 with West Nile virus was over 10 µM. The CC50 in data set [1] was over 40 µM.
